Earlier results as cited in patent publication US20240009181A1, “METHOD FOR THE TREATMENT AND PROPHYLAXIS OF SUBSTANCE-RELATED AND/OR ADDICTIVE DISORDERS INCLUDING SUBSTANCE/MEDICATION-INDUCED DEPRESSIVE DISORDERS, BIPOLAR AND RELATED DISORDERS, AND ANXIETY DISORDERS AND COMPOSITIONS USEFUL FOR THE SAME” (priority 2022, published 2024).

Columns and labels:
[1] = in vivo
opioid use disorder = conditions: vs. 23% given placebo

half-life [1] | Compound | complete abstinence (opioid-free over 19 weeks of treatment), share of subjects (opioid use disorder) [%]
about 75 hours | O=C1CCc2ccc(OCCCCN3CCN(c4cccc(Cl)c4Cl)CC3)cc2N1 [aripiprazole] | –
about 91 hours | O=c1ccc2ccc(OCCCCN3CCN(c4cccc5sccc45)CC3)cc2[nH]1 [brexpiprazole] | –
– | O=C1CC[C@@]2(O)[C@H]3Cc4ccc(O)c5c4[C@@]2(CCN3CC2CC2)[C@H]1O5 [naltrexone] | 36
about 21 hours | CC1(C)O[C@@H]2[C@@H](CO[C@@]3(COS(N)(=O)=O)OC(C)(C)O[C@@H]23)O1 [topiramate] | –
